Reference: US6818391B2, “Glutamate transporters” (The Regents of the University of California, priority 2000, dated 2004)

Experiments:
BNPI (VGLUT1) = target: T1, BNPI (VGLUT1) (Rattus norvegicus, UniProt Q62634); assay: 3H-glutamate uptake by membranes from PC12 cells expressing BNPI; type: biochemical; settings: for inhibition of 3H-glutamate uptake by membranes expressing BNPI: 10 mM, uptake at 5 min
T1 construct: expressed in transfected cells; light membranes prepared from them
T1 sequence (Q62634 1-560): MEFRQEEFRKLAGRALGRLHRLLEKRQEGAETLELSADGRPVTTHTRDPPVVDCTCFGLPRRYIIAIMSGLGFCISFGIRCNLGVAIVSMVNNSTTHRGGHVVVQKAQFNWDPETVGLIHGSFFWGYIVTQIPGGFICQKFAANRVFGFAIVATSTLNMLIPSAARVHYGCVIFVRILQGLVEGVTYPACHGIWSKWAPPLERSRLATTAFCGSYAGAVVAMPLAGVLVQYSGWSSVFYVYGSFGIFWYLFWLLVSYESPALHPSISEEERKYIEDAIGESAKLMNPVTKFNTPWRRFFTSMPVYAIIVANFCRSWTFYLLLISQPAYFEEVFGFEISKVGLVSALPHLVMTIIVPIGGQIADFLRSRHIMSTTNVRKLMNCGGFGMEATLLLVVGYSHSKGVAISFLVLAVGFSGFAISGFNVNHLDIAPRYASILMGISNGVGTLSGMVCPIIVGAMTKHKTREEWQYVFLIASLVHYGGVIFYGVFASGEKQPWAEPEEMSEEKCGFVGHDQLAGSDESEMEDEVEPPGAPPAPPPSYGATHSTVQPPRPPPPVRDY
Source text: Rather, the type I transporter NaPi-1 transports organic anions, including phenol red and penicillin G, with substantially higher apparent affinity than Pi (Busch et al. (1996) Proc. Natl. Acad. Sci., USA, 93: 5347). Human genetic studies have shown that mutations in another protein closely related to BNPI and NaPi-1 account for disorders of sialic acid storage (Verheijen et al. (1999) Nature Genet. 23: 462). In these conditions, sialic acid accumulates in lysosomes because of a defect in proton-driven export (Renlund et al. (1986) Science 232: 759; Mancini et al. (1989) J. Biol. Chem. 264: 15247; Tietze et al. (1989) J. Biol. Chem. 264: 15316; Mancini et al. (1992) Proc. Natl. Acad. Sci., USA, 89: 6609). […] To determine whether BNPI mediates the transport of glutamate into synaptic vesicles, we transfected the rat BNPI cDNA into rat pheochromocytoma PC12 cells, which lack detectable endogenous BNPI protein. The rat BNPI cDNA was stably expressed in PC12 cells, and immunofluorescence for BNPI was used to identify the most highly expressing cell clones. Membranes were prepared by homogenizing the washed cells in SH buffer [0.32 M sucrose and 10 mM Hepes-KOH (pH 7.4)] containing protease inhibitors and by pelleting the nuclei at 1000 g for 5 min and the heavier membranes at 27,000 g for 35 min. The supernatant containing lighter membranes was then pelleted at 210,000 g for 1 hour and resuspended in SH buffer with protease inhibitors at a final concentration of ˜10 μg protein/μl.
We then prepared a population of light membranes, including synaptic-like microvesicles, from the transfected and untransfected cells (McIntire et al. (1997) Nature 389: 870) and tested their ability to accumulate 3H-glutamate in the presence of 4 mM chloride and ATP, conditions that optimize glutamate accumulation by native synaptic vesicles (Maycox et al. (1988) J. Biol. Chem., 263: 15423; Carlson et al. […] J. Biol. Chem. 264: 7369). To initiate the transport reaction, we added 10 μl of membranes to 190 μl of SH buffer containing 4 mM KCl, 4 mM MgSO4, 4 mM ATP, and 50 μM 3H-glutamate, with other additions noted in the text and figure legends. The reaction mixture was incubated at 29° C. for varying times, and the uptake was terminated by rapid filtration, followed by immediate washes with 6 ml of cold 0.155 M potassium tartrate and 10 mM Hepes (pH 7.4). Background uptake was determined using membranes prepared from untransfected cells that were incubated for the same amount of time at the same temperature. Transport measurements were performed in duplicate with at least two different preparations of membranes. The Km was calculated by averaging the results of two separate determinations.

[1] = tested on: untransfected PC12 cell membranes; assay: acridine orange fluorescence quenching of untransfected cell membranes; type: biochemical, rat; settings: 10 mM glutamate
Method: Native synaptic vesicles acidify during glutamate uptake (Maycox et al. (1988) J. Biol. Chem., 263: 15423). Glutamate presumably serves as a counterion for protons and dissipates ΔΨ, enabling the vacuolar H+-ATPase to generate a larger ΔpH, but cotransport of H+ with glutamate remains an alternative possibility. To determine whether acidification also accompanies glutamate transport by BNPI, we used the quenching of acridine orange fluorescence to measure vesicle pH. Membranes (200 μg of protein) were diluted into 2 ml of 0.3 M sucrose and 10 mM tris-Mops (pH 7.4) containing 4 mM MgSO4 and 5 μM acridine orange and incubated at 37° C. with continuous stirring. Fluorescence was monitored with a Hitachi F4500 spectrofluorimeter at an excitation wavelength of 492 nm and emission of 530 nm. Separate measurements were made with at least three different membrane preparations for wild-type and transfected cells; representative tracings are shown in FIG. 5.

synaptic vesicles = settings: read-out: Km of vesicular glutamate transport; cited from earlier work
[2] = tested on: untransfected PC12 cell membranes; assay: background 3H-glutamate uptake by membranes from untransfected PC12 cells; type: biochemical, rat; settings: uptake at 5 min
Method: To initiate the transport reaction, we added 10 μl of membranes to 190 μl of SH buffer containing 4 mM KCl, 4 mM MgSO4, 4 mM ATP, and 50 μM 3H-glutamate, with other additions noted in the text and figure legends. […] Background uptake was determined using membranes prepared from untransfected cells that were incubated for the same amount of time at the same temperature. Transport measurements were performed in duplicate with at least two different preparations of membranes. The Km was calculated by averaging the results of two separate determinations.

N[C@@H](CCC(=O)O)C(=O)O [L-Glutamate]
inhibition of 3H-glutamate uptake by membranes expressing BNPI (BNPI (VGLUT1)): markedly inhibits | inhibition of 3H-glutamate uptake by membranes expressing BNPI (BNPI (VGLUT1); listed as L-glutamate): inhibited the uptake | Km (BNPI (VGLUT1); initial rate at 1 min, Lineweaver-Burke, untransfected background subtracted, read-out: Km of glutamate transport by BNPI): ~2000 µM | effect on acidification produced by chloride in nontransfected cell membranes [1]: had no effect | Km (synaptic vesicles): ~1000 µM | effect on background glutamate uptake by untransfected cell membranes [2]: had little effect

Cl [chloride]
3H-glutamate uptake by BNPI at non-optimal chloride (BNPI (VGLUT1); 0 and 25 mM chloride): much less activity detected
